Assay [1] deals with permeabilised HepG2 cells. In words: Calcium retention capacity (CRC) assay in permeabilised HepG2 cells (MPTP opening). Format: cell-based, human. Also on record: CRC [10 μM]: unit not given here. To be noted: compound at 10 μM; for CRC [10 μM] (ratio vs CsA): normalised to cyclosporin A, value in brackets; for CRC [10 μM]: digitonin permeabilised HepG2 cells. Here is the method: The use of permeabilised cells means that inhibitory compounds that may not normally enter non-permeabilised cells are more likely to be active.
The calcium retention capacity (CRC) is a measure of the capability of mitochondria to retain calcium, primarily in the form of calcium phosphates, in the mitochondrial matrix.
In a CRC assay, the calcium indicator Calcium Green-5N (InVitrogen) is utilized. […] The assay is carried out in HepG2 (human hepatocellular carcinoma) cells which are digitonin permeabilized. Trains of calcium pulses (typically 5 μM additions) are added which results in a sudden increase in fluorescence which is then reduced by mitochondrial buffering. The cells will reach a point at which the calcium addition is no longer buffered, an indication that the MPTP has opened (mitochondrial permeability transition).
The experiment is performed with and without inhibitor. A compound that acts to inhibit the mitochondrial pore opening will result in a greater requirement for calcium to reach the transition point. The results are normalised to a positive control (cyclosporin A) in each experiment. The results are shown in column 3 of Table 5 as CRC [10 μM] (ratio vs CsA). The method of digitonin permeabilised whole cell CRC assay is similar to that used by Chiara et al. (PLoS One, March, 3, 3, e1852 (2008)).

For a further assay, the target named is cyclophilin A (Homo sapiens (Human), UniProt P62937). As to the kind of experiment: Functional peptidyl prolyl isomerase (PPIase) spectrophotometric assay, cyclophilin A. Format: biochemical. The conditions noted are these: first value of CypA/D cell. From the text: (§1) Cyclophilins are enzymes that catalyse the cis-trans isomerisation of peptide bonds to the amino acid proline. This event is important in many biological processes, including protein folding and signal transduction. […] The method to measure this activity and its inhibition is similar to that described by Jankowski (Analytical Biochemistry, 252, 2, 299-307 (1997)). The assay measures the cis to trans isomerisation of a peptide substrate catalysed by a PPlase enzyme using a UV/Vis spectrophotometer. This assay is a manual single cuvette-based assay. A first order rate equation is fitted to the absorbance data to obtain a rate constant. The catalytic rate is calculated from the enzymatic rate minus the background rate. The Ki (the concentration required to produce half maximum inhibition) for an inhibitor is obtained from the rate constant plotted against the inhibitor concentration. Typically, a 6-point dose response curve is obtained from duplicates and a Ki determined. Data are given in Table 5 as Ki [nM] for cyclophilins A and D, expressed in column 2 of Table 5 as Ki (cypA)/Ki (cypD).
Sequence of cyclophilin A (P62937 whole entry, species assumed): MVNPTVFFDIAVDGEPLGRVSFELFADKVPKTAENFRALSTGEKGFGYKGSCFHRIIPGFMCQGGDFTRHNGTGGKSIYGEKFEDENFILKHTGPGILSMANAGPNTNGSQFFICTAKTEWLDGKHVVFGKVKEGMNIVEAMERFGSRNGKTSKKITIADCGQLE

In the next assay the target is cyclophilin D (Homo sapiens (Human), UniProt P30405). In words: Functional peptidyl prolyl isomerase (PPIase) spectrophotometric assay, cyclophilin D. The conditions noted are these: second value of CypA/D cell; read-out: Ki CypD. Format: biochemical.
Sequence of cyclophilin D (P30405 30-207, species assumed): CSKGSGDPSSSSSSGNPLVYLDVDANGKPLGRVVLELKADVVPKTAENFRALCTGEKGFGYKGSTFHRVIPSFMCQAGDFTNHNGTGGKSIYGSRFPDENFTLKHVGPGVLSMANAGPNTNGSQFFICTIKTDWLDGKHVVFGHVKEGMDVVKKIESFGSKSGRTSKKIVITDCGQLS
Source text: as §1

As a reminder, the Ki is a dissociation constant, usually derived from enzyme kinetics or from competition with a known ligand.

`CC(C)[C@H]1OC(=O)C(C)(C)/C=C/c2ccc3ccc(nc3c2)N(C)NC(=O)[C@@H]2CCCN(N2)C(=O)[C@H](C)NC1=O` [Compound (3)]: the “CRC [10 μM] (ratio vs CsA)” value in assay [1] is given as 0.5. The figures for the Ki on cyclophilin A and at cyclophilin D were 550 nM and 1300 nM, respectively.

Turning to `CC(C)[C@@H]1OC(=O)C(C)(C)/C=C/c2ccc3ccc(nc3c2)N2CCCN2C(=O)[C@@H]2CCCN(N2)C(=O)[C@H](C)NC1=O` [Compound (8)], the Ki on cyclophilin A is 13.9 nM; at cyclophilin D it was 15 nM.

Take `CC(C)C(=O)N1CCN(C[C@@H]2OC(=O)C(C)(C)/C=C/c3ccc4ccc(nc4c3)N(C)NC(=O)[C@@H]3CCCN(N3)C(=O)[C@H](C)NC2=O)C[C@@H]1C` [Compound (45)]: in assay [1], the “CRC [10 μM]” value is given as 15 and the “CRC [10 μM] (ratio vs CsA)” value is reported as 0.60. In addition, affinity on cyclophilin A was put at a Ki of 61 nM. In addition, at cyclophilin D, the Ki was 140 nM.

`C[C@@H]1NC(=O)[C@@H](CC2CCCN(C)C2)OC(=O)C(C)(C)/C=C/c2ccc3ccc(nc3c2)N(C)NC(=O)[C@@H]2CCCN(N2)C1=O` (some centres unmarked) [Compound (28)]: in assay [1], the “CRC [10 μM]” value was 5 and the “CRC [10 μM] (ratio vs CsA)” value came out at 0.17. Further, the affinity at cyclophilin A corresponds to a Ki of 5900 nM.

Consider `CC(=O)N1CCC[C@@H](C[C@@H]2OC(=O)C(C)(C)/C=C/c3ccc4ccc(nc4c3)N(C)NC(=O)[C@@H]3CCCN(N3)C(=O)[C@H](C)NC2=O)C1` [Compound (29)], for which, in assay [1], the “CRC [10 μM]” value turned out to be 20 and the “CRC [10 μM] (ratio vs CsA)” value came to 0.67. The Ki at cyclophilin A is 51 nM. At cyclophilin D, the Ki was 170 nM.

As for `CC(C)[C@H]1CC(=O)C(C)(C)/C=C/c2ccc3ccc(nc3c2)N(C)NC(=O)[C@@H]2CCCN(N2)C(=O)[C@H](C)NC1=O` [Compound (82)], the Ki on cyclophilin A is 320 nM; on cyclophilin D it was 150 nM.

For `C[C@@H]1NC(=O)[C@@H](CC2CCCNC2)OC(=O)C(C)(C)/C=C/c2ccc3ccc(nc3c2)N(C)N(C)C(=O)[C@@H]2CCCN(N2)C1=O` (single isomer, unassigned) [Compound (32)], the “CRC [10 μM]” value in assay [1] is listed as 5. The “CRC [10 μM] (ratio vs CsA)” value in assay [1] (listed as 32) is given as 0.20. The Ki was 2200 nM at cyclophilin A and 4900 nM on cyclophilin D.

In the case of `C[C@@H]1NC(=O)[C@H](C2CCCC2)CC(=O)C(C)(C)/C=C/c2ccc3ccc(nc3c2)N(C)NC(=O)[C@@H]2CCCN(N2)C1=O` [Compound (24)], the values for the Ki at cyclophilin A and at cyclophilin D were 19 nM and 12 nM, respectively.

In the case of `CC(C)[C@@H]1OC(=O)C(C)(C)/C=C/c2ccc3ccc(nc3c2)N(CCCO)NC(=O)[C@@H]2CCCN(N2)C(=O)[C@H](C)NC1=O` [Compound (7)], the Ki on cyclophilin A was 36.7 nM; at cyclophilin D, 8.1 nM.

Regarding `CC(C)[C@H]1C(=O)N[C@@H](C)C(=O)N2CCC[C@H](N2)C(=O)NN(C)c2ccc3ccc(cc3n2)/C=C/C(C)(C)CN1C` [Compound (23)], in assay [1], the “CRC [10 μM]” value is reported as 12.5 and the “CRC [10 μM] (ratio vs CsA)” value is on record as 0.38. Further, on cyclophilin A, the Ki turned out to be 92 nM. Also, the Ki on cyclophilin D worked out at 260 nM.

As to `C[C@@H]1NC(=O)[C@H](CC2CCNCC2)OC(=O)C(C)(C)/C=C/c2ccc3ccc(nc3c2)N(C)NC(=O)[C@@H]2CCCN(N2)C1=O` [Compound (58)], in assay [1], the “CRC [10 μM]” value turned out to be 8.3 and the “CRC [10 μM] (ratio vs CsA)” value was 0.38. The Ki at cyclophilin A came to 80 nM. Moreover, on cyclophilin D, the Ki came to 54.5 nM.

For `CC(C)[C@@H]1NCC(C)(C)/C=C/c2ccc3ccc(nc3c2)N(C)NC(=O)[C@@H]2CCCN(N2)C(=O)[C@H](C)NC1=O` [Compound (20)], in assay [1], the “CRC [10 μM]” value is given as 22.5 and the “CRC [10 μM] (ratio vs CsA)” value is on record as 0.57. Moreover, the Ki on cyclophilin A is 100 nM. On cyclophilin D, the Ki was found to be 140 nM.

For `CC(C)[C@@H]1OC(=O)C(C)(C)/C=C/c2ccc3ccc(nc3c2)N(C)NC(=O)[C@@H]2CCCN(N2)C(=O)[C@H](Cc2ccncc2)NC1=O` [Compound (78)], the “CRC [10 μM]” value in assay [1] was >10,000. For the same molecule, at cyclophilin D, the inhibitory constant (Ki) amounted to 360 nM.

On to `CC(=O)N1NC(=O)[C@@H]2CCCN(N2)C(=O)[C@H](C)NC(=O)[C@H](C(C)C)OC(=O)C(C)(C)/C=C/c2ccc3ccc1nc3c2` [Compound (10)], for which the results for the Ki at cyclophilin A and on cyclophilin D were 5.3 nM and 8.7 nM, respectively.

On to `CC(C)NC(=O)c1ccc(C[C@@H]2OC(=O)C(C)(C)/C=C/c3ccc4ccc(nc4c3)N(C)NC(=O)[C@@H]3CCCN(N3)C(=O)[C@H](C)NC2=O)cc1` [Compound (47)], for which, in assay [1], the “CRC [10 μM]” value is listed as 17.5 and the “CRC [10 μM] (ratio vs CsA)” value worked out at 1.00. The molecule also came in with a Ki at cyclophilin A of 27 nM. On cyclophilin D, the Ki turned out to be 21 nM.

As for `C[C@@H]1NC(=O)[C@H](Cc2ccc(O)cc2)OC(=O)C(C)(C)/C=C/c2ccc3ccc(nc3c2)N(C)NC(=O)[C@@H]2CCCN(N2)C1=O` [Compound (42)], in assay [1], the “CRC [10 μM]” value came out at 25. For the same molecule, the “CRC [10 μM] (ratio vs CsA)” value in assay [1] amounted to 0.8. The Ki came out at 1.2 nM on cyclophilin A and 5.8 nM on cyclophilin D.

`CC(C)[C@@H]1OC(=O)C(C)(C)/C=C/c2ccc3ccc(nc3c2)N(C)NC(=O)[C@@H]2CCCN(N2)C(=O)[C@H](CCC(=O)O)NC1=O` [Compound (62)]: the Ki at cyclophilin A amounted to 5.6 nM; at cyclophilin D, 9.6 nM.

For `C[C@@H]1NC(=O)[C@H](C2CCOCC2)OC(=O)C(C)(C)/C=C/c2ccc3ccc(nc3c2)N(C)NC(=O)[C@@H]2CCCN(N2)C1=O` [Compound (59)], in assay [1], the “CRC [10 μM]” value came to 17.5 and the “CRC [10 μM] (ratio vs CsA)” value stood at 0.85. The molecule further came in with a Ki at cyclophilin A of 37 nM. Besides, the Ki on cyclophilin D turned out to be 38 nM.

Turning to `C[C@@H]1NC(=O)[C@H](CN2CCCCC2)OC(=O)C(C)(C)/C=C/c2ccc3ccc(nc3c2)N(C)NC(=O)[C@@H]2CCCN(N2)C1=O` [Compound (44)], in assay [1], the “CRC [10 μM]” value was determined as 5 and the “CRC [10 μM] (ratio vs CsA)” value came to 0.33. This molecule registered a Ki on cyclophilin A of 590 nM. For the same molecule, the Ki at cyclophilin D was 140 nM.

Regarding `C[C@@H]1NC(=O)[C@H](Cc2ccc(C(=O)O)cc2)OC(=O)C(C)(C)/C=C/c2ccc3ccc(nc3c2)N(C)N(C)C(=O)[C@@H]2CCCN(N2)C1=O` [Compound (11)], in assay [1], the “CRC [10 μM]” value came to 20. Also, the “CRC [10 μM] (ratio vs CsA)” value in assay [1] is 0.80. Also, the Ki turned out to be 280 nM on cyclophilin A and 83 nM on cyclophilin D.

Consider `CC(C)[C@@H]1OC(=O)C(C)(C)/C=C/c2ccc3ncc(nc3c2)N(C)NC(=O)[C@@H]2CCCN(N2)C(=O)[C@H](C)NC1=O` [Compound (4)], for which the “CRC [10 μM]” value in assay [1] stood at 16.4. Besides, the Ki on cyclophilin A stood at 3.3 nM; on cyclophilin D, 13 nM.

With `CC(C)C(=O)N1CCC2(/C=C/c3ccc4ccc(nc4c3)N(C)NC(=O)[C@@H]3CCCN(N3)C(=O)[C@H](C)NC(=O)[C@H](C(C)C)OC2=O)CC1` [Compound (15)], in assay [1], the “CRC [10 μM]” value was 38 and the “CRC [10 μM] (ratio vs CsA)” value is given as 1. Also, the inhibition constant Ki at cyclophilin A was 1.7 nM. The Ki at cyclophilin D amounted to 9.9 nM.

As for `CC(C)[C@@H]1OC(=O)C(C)(C)CCc2ccc3ccc(nc3c2)N(C)NC(=O)[C@@H]2CCCN(N2)C(=O)[C@H](C)NC1=O` [Compound (5)], the Ki on cyclophilin A was greater than 10000 nM; on cyclophilin D, greater than 10 nM.

Turning to `CC(C)[C@@H]1OC(=O)C2(/C=C/c3ccc4ccc(nc4c3)N(C)NC(=O)[C@@H]3CCCN(N3)C(=O)[C@H](C)NC1=O)COCOC2` [Compound (18)], in assay [1], the “CRC [10 μM]” value is 10 and the “CRC [10 μM] (ratio vs CsA)” value is recorded as 0.33. At cyclophilin A, this molecule gave a Ki of 260 nM. For the same molecule, at cyclophilin D, the Ki turned out to be 370 nM.

With `CC(C)[C@@H]1OC(=O)C(C)(C)/C=C/c2ccc3ccc(nc3c2)N(C)NC(=O)[C@@H]2CCCN(N2)C(=O)[C@@H](Cc2ccccc2)NC1=O` [Compound (77)], in assay [1], the “CRC [10 μM]” value is on record as 15 and the “CRC [10 μM] (ratio vs CsA)” value is 0.39. Besides, the Ki on cyclophilin D was 700 nM.

These data come from patent US20250243219A1, “MACROCYCLIC COMPOUNDS AND USES THEREOF” (Cypralis Limited, priority 2022, published 2025).
